Measurements published in patent US8207142B2, “Inhibitor of DNA methylation” (priority 2001, dated 2012).

Legend:
EJ6 tumors = EJ6 tumors in BALB/c nu/nu mice, tumor volume and histology; type: in vivo
Method: (§1) EJ6 cells (5×10^5/injection) were inoculated subcutaneously into the right and left flanks of male BALB/c nu/nu mice at 4-6 weeks of age (available from Harlan, San Diego, Calif.). Zebularine treatments were initiated after macroscopic (50-200 mm 3) tumor formation (4-6 weeks later). Zebularine (500 mg/kg or 1000 mg/kg) was administered daily via intraperitoneal injection or oral gauage feeding over a period of 18 days. Control mice received 0.45% saline administered via intraperitoneal injection or oral gavage feeding over a period of 18 days. Mice (n=30) were divided into five groups (control group, 500 mg/kg intraperitoneal injection, 500 mg/kg oral, 1000 mg/kg intraperitoneal injection, and 1000 mg/kg oral). Each treatment group consisted of a minimum of five animals (at least 6 tumors per group).
Tumor volumes (TV) were measured with calipers and calculated using the following formula: tumor volume=LD^2/2 (where L is the longest diameter and D is the shortest diameter). The relative tumor volume (RTV) was calculated as: RTV=TVn/TVo, where TVn is the calculated volume at day n. Animals were sacrificed 24 hours after the last treatment. Tumors were removed, immediately fixed with neutral buffered formalin and then embedded in OCT compound for frozen sections. The frozen sections were processed and stained with hematoxylin and eosin (H&E). All histological examinations were carried out by light microscopy using a Leica DM LB microscope (Leica Microsystems, Germany).

[1] = Body weight of tumor-bearing BALB/c nu/nu mice; type: in vivo
Method: as §1
Similarly, each group of mice (n=5 or 6) was weighed at the indicated time points, and average body weight was plotted against days after initial treatment in FIG. 14.

[2] = test system: p16 promoter and p16 exon 2; test: Continuous long-term treatment of T24 cells, methylation of p16 promoter and p16 exon 2; type: cell-based, human; conditions: 100 μM continuous treatment, Day 14, T24 cells; dropped from ˜96%
[3] = test system: human p16 cDNA in EJ6 tumor cells; test: RT-PCR of p16 gene expression in EJ6 tumor cells growing in mice; type: in vivo; conditions: EJ6 tumor cells in BALB/c nu/nu mice after treatment
Method: Total RNA was isolated from the tumors to analyze gene expression using conventional methods. DNA also was isolated, to measure the methylation status of p16 promoter by Ms-SnuPE as described below.
GAPDH mRNA levels were measured to control for the quantity and integrity of the input RNA. The control group represents tumors obtained from mice mock-treated either with 0.45% NaCl via intraperitoneal injection or oral gavage feeding. Results from one of six similar independent tumors are shown for each group in FIG. 15.

T24 cells [4] = test: Zebularine metabolites in T24 cells (SAX-10 HPLC); type: in vitro ADME, human; conditions: 6 hr incubation
Method: ZB, ZB-MP, ZB-DP and ZB-TP correspond, respectively, to Zebularine, 5′-mono, 5′-di- and 5′-triphosphate metabolites. There are two unidentified metabolites, indicated by the symbols ?1 and ?2.
Zebularine metabolites were identified after incubation of human bladder cancer cells (T24) in DMEM+10% FCS medium with antibiotics. Zebularine (10 μM, 1 μCi), specific activity 200 DPM/pmole was used in these experiments. At the end of the incubation, cells were extracted with 60% methanol and aliquots were analyzed by SAX-10 HPLC using a methanolwater gradient as follows: 1-5 min 1% MeOH, 5-25 min gradient to 25% MeOH, 25-35 min isocratic with 25% MeOH and back to 1% MeOH after 10 min. The phosphorylated metabolites were identified by comparison with authentic synthetic standards. Using this methodology formation of metabolites as a function of concentration after a 6 hr incubation period was investigated (FIG. 17). The major metabolite formed was the 5′-triphosphate.

DNMT3b3 = target: T1, DNMT3b3 (Homo sapiens, UniProt Q9UBC3); test: Western blot of DNMT3b3 level in treated T24 cells; type: cell-based; conditions: 500 μM for 48 h
T1 construct: protein extracts were isolated from both treated and untreated T24; endogenous in cells; host or cells: T24 human bladder carcinoma cells (ATCC)
Method: (§2) The mRNA for DNMT3b3 is the only 3b transcript expressed in T24 cells, and DNMT3a levels could not be assessed because no suitable antibodies against DNMT3a are available. Thus, with reference to FIG. 12, protein extracts were isolated from both treated and untreated T24 (population 3 million cells, treated with 500 μM Zebularine for 48 h), and […] with specific antibodies for DNMT1 and DNMT3b3 as shown in FIG. 12. β-actin was included as a loading control, and the molecular weights of each protein are indicated.

T24 cells [5] = test: Incorporation of Zebularine into DNA and RNA in T24 cells; type: in vitro ADME, human; conditions: 10 μM, 1 μCi, 24 hr
Method: FIG. 19 is a bar graph depicting the relative incorporation of Zebularine into DNA and RNA in T24 cells, showing that approximately 7 times the amount of Zebularine is incorporated into RNA as DNA.
Following a similar incubation protocol in T24 cells (Zebularine (10 μM, 1 μCi) for 24 hr, cellular DNA and RNA were isolated by the tri-reagent method according to the manufacture's instructions. Levels of Zebularine and 2′-Deoxyzebularine were determined by measuring total radioactivity in purified RNA and DNA, respectively. The identity of Zebularine and 2′-Deoxyzebularine was accomplished by a reverse phase HPLC analysis of digested RNA and DNA and comparison against authentic standards. In FIG. 19 a bar graph depicts the relative incorporation of Zebularine into DNA and RNA in T24 cells, showing that approximately 7 times the amount of Zebularine is incorporated into RNA as DNA.

DNMT1 = target: T2, DNMT1 (Homo sapiens, UniProt P26358); test: Western blot of DNMT1 level in treated T24 cells; type: cell-based; conditions: 500 μM for 48 h
T2 construct: protein extracts were isolated from both treated and untreated T24; endogenous in cells; host or cells: T24 human bladder carcinoma cells (ATCC)
T2 sequence (P26358 whole entry): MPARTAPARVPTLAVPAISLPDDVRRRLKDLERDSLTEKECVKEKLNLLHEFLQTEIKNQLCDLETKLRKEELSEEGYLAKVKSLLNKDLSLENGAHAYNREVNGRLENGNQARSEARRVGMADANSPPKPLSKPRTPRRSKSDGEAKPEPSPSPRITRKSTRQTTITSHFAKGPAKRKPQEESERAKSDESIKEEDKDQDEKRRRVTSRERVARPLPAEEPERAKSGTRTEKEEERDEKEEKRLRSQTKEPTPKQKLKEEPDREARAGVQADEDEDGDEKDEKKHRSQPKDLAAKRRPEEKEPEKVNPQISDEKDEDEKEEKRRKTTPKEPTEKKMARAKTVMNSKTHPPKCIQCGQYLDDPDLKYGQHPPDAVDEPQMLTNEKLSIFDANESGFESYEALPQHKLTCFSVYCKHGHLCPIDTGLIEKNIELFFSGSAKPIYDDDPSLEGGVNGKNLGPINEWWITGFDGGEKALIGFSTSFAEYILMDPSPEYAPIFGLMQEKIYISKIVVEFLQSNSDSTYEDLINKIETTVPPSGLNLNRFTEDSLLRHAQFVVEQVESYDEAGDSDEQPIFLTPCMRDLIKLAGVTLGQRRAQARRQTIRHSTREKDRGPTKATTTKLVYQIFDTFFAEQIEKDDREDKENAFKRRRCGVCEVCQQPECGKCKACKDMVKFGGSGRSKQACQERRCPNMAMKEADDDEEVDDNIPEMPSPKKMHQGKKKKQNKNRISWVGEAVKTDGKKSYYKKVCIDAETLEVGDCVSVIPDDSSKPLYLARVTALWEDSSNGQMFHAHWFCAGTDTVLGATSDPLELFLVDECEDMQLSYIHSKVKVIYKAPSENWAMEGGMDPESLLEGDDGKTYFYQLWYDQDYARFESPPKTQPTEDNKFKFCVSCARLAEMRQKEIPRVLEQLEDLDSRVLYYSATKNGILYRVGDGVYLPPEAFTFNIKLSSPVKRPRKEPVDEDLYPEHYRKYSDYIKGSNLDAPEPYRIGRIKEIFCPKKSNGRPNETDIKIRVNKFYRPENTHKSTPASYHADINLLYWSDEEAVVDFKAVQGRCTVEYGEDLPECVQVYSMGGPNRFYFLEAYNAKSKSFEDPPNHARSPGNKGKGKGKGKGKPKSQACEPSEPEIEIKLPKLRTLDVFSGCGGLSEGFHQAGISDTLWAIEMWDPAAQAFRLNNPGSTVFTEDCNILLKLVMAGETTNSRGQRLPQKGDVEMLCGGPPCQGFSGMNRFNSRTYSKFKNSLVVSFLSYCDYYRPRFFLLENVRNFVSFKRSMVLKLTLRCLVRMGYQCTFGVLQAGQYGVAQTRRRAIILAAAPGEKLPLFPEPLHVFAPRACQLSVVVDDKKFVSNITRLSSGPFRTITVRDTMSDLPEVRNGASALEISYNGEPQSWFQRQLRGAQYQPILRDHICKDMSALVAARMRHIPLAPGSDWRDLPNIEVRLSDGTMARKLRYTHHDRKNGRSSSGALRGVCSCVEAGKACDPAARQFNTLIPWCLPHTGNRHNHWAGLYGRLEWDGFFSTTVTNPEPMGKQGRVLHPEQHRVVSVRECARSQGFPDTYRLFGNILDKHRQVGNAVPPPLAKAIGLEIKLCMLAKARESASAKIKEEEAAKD
Method: as §2

[6] = Toxicity (Table 1 summary of characteristics)
[7] = all treated groups: 500 or 1000 mg/kg daily, intraperitoneal or oral, 18 days

O=c1ncccn1[C@@H]1O[C@H](CO)[C@@H](O)[C@H]1O [Zebularine, 1-β-ribofuranosyl-1,2-dihydropyrimidin-2-one]
tumor regression (EJ6 tumors; 1000 mg/kg orally or intraperitoneally, daily, 18 days): tumor regression was observed | tumor growth (relative tumor volume) vs control group (EJ6 tumors; [7]): tumor growth appeared suppressed | ratio of tumor cells to stroma (H&E stained tumor sections), treated versus untreated (EJ6 tumors; tumors removed 24 hours after the last treatment): lower ratio of tumor cells to stroma | weight loss [1, 7]: weight loss was minimal | greatest weight loss ([1]; group treated with 1000 mg/kg): ~7% | methylation level at maximum demethylation [2]: ~47% | p16 gene expression in vivo (RT-PCR) [3]: Reactivation of p16 gene expression | major metabolite formed (T24 cells [4]): 5′-triphosphate | level of DNMT3b3 (DNMT3b3): significant reduction | amount incorporated into RNA relative to DNA (T24 cells [5]): approximately 7 times | level of DNMT1 (DNMT1): significant reduction

Nc1ncn([C@@H]2O[C@H](CO)[C@@H](O)[C@H]2O)c(=O)n1 [5-Aza-CR, 5-azacytidine, reference compound]
Toxicity [6]: High
